Data taken from patent US9896441B2 (Lycera Corporation, priority 2014, dated 2018).

Key:
RORγ-LBD = target: T1, RORγ-LBD (Homo sapiens, UniProt P51449); experiment: RORγ-Ligand Binding Domain (LBD) TR-FRET Assay; format: biochemical; conditions: for TR-FRET Assay Max Response: maximum response;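 on TR-FRET Assay Max Response: 665/615 nm signal ratio set to 100 without ursolic acid or test compound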
T1 construct: made in house; host or cells: SF9 cells (baculovirus); used as diluted lysate
T1 sequence (P51449 269-508 limits assumed): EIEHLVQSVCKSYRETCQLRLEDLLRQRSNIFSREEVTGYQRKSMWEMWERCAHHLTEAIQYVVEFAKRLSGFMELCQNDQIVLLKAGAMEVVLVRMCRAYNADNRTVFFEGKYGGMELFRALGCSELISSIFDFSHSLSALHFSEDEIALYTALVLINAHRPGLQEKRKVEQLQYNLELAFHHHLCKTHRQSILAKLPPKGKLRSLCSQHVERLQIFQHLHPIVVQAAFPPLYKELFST
In short: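 His-tagged RORγ-LBD from SF9 baculovirus lysate, ~3 nM final, in 50 mM Tris pH 7.0, 50 mM KCl, 1 mM EDTA, 0.1 mM DTT, 0.01% BSA. Biotinylated SRC1 LXXLL peptide at 200 nM final with 2 μM ursolic acid; TR-FRET read-out, 1% DMSO final.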

Gal4-RORγ-LBD = target: T2, Gal4-RORγ-LBD (Homo sapiens, UniProt P51449); experiment: Gal4-RORγ Luciferase Reporter Assay in HEK-293T Cells; format: cell-based; conditions: HEK-293 cells, luciferase reporter; for Gal4-RORγ Assay Max Response: maximum response
T2 construct: expressed in transfected cells
T2 sequence (P51449 269-508 limits assumed): T1 sequence (P51449 269-508 limits assumed)
In short: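 HEK-293 cells were co-transfected with Gal4-RORγ-LBD and a Gal4-luciferase reporter, then exposed overnight at 37 °C to compounds with […] ursolic acid present (0.2% DMSO). Luminescence was read with One-Glo after 10 min at RT, untreated signal was set as 100, and Max Response was taken as the upper plateau of a 4-parameter logistic fit.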

EC50 (RORγ-LBD; RORγ-LBD TR-FRET)	EC50 (Gal4-RORγ-LBD; with ursolic acid)	EC50 (RORγ-LBD; RORγ-LBD TR-FRET assay)	EC50 (Gal4-RORγ-LBD; in presence of ursolic acid)	SMILES	TR-FRET Assay Max Response (RORγ-LBD; RORγ-LBD TR-FRET assay)	Gal4-RORγ Assay Max Response (Gal4-RORγ-LBD; in presence of ursolic acid)
		< 500 nM	500 to 5000 nM	COc1cc(S(=O)(=O)N2C[C@H](CCNC(=O)C(=O)O)Oc3ccc(/C=C(\C)c4c(F)cccc4Cl)cc32)ccc1F [Example 116K, (S,E)-2-((2-(6-(2-(2-chloro-6-fluorophenyl)prop-1-en-1-yl)-4-((4-fluoro-3-methoxyphenyl)sulfonyl)-3,4-dihydro-2H-benzo[b][1,4]-oxazin-2-yl)ethyl)amino)-2-oxoacetic acid]	*** (a value in the range of greater than 150 to 200)	** (a value in the range of greater than 90 to 150)
		< 500 nM	500 to 5000 nM	C/C(=C\c1ccc2c(c1)N(S(=O)(=O)c1cccc(C(F)(F)F)c1)C[C@H](CCC(=O)N1CCNCC1)O2)c1c(F)cccc1Cl [Example 127F, (S,E)-3-(6-(2-(2-chloro-6-fluorophenyl)prop-1-en-1-yl)-4-((3-(trifluoromethyl)phenyl)sulfonyl)-3,4-dihydro-2H-benzo[b][1,4]oxazin-2-yl)-1-(piperazin-1-yl)propan-1-one]	**** (a value greater than 200)	** (a value in the range of greater than 90 to 150)
		< 500 nM	< 500 nM	C/C(=C\c1ccc2c(c1)N(S(=O)(=O)c1cccc(C(F)(F)F)c1)C[C@H](CCC(=O)N1CC[C@@H](C(=O)O)C1)O2)c1c(F)cccc1Cl [Example 129B, (R)-1-(3-((S)-6-((E)-2-(2-chloro-6-fluorophenyl)-prop-1-en-1-yl)-4-((3-(trifluoromethyl)phenyl)sulfonyl)-3,4-dihydro-2H-benzo[b][1,4]oxazin-2-yl)propanoyl)pyrrolidine-3-carboxylic acid]	**** (a value greater than 200)	** (a value in the range of greater than 90 to 150)
< 500 nM	500 to 5000 nM			O=C(O)CC[C@H]1CN(S(=O)(=O)c2cc(C(F)(F)F)cnc2OCCO)c2cc(C=C3CCCCC3)ccc2O1 [Example 95C, (S)-3-(6-(cyclohexylidenemethyl)-4-((2-(2-hydroxyethoxy)-5-(trifluoromethyl)pyridin-3-yl)sulfonyl)-3,4-dihydro-2H-benzo[b][1,4]oxazin-2-yl)propanoic acid]		
		< 500 nM	< 500 nM	C/C(=C\c1ccc2c(c1)C(S(=O)(=O)c1cccc(C(F)(F)F)c1)CC(CCC(=O)O)O2)c1c(F)cccc1Cl (centres unmarked) [Example 186I, (E)-3-(6-(2-(2-chloro-6-fluorophenyl)prop-1-en-1-yl)-4-((3-(trifluoromethyl)phenyl)-sulfonyl)chroman-2-yl)propanoic acid]	** (a value in the range of greater than 90 to 150)	** (a value in the range of greater than 90 to 150)
< 500 nM	500 to 5000 nM			O=C(O)CC[C@H]1CN(S(=O)(=O)c2cc(C(F)(F)F)cnc2OCCO)c2cc(C=C3CCC(F)(F)CC3)ccc2O1 [Example 95M, (S)-3-(6-((4,4-difluorocyclohexylidene)methyl)-4-((2-(2-hydroxyethoxy)-5-(trifluoromethyl)pyridin-3-yl)sulfonyl)-3,4-dihydro-2H-benzo[b][1,4]oxazin-2-yl)propanoic acid]		
		< 500 nM	500 to 5000 nM	O=C(CC[C@H]1CN(S(=O)(=O)c2cccc(C(F)(F)F)c2)c2cc(/C=C/c3c(F)cccc3Cl)ccc2O1)N1CC2(COC2)C1 [Example 127I, (S,E)-3-(6-(2-chloro-6-fluorostyryl)-4-((3-(trifluoromethyl)phenyl)sulfonyl)-3,4-dihydro-2H-benzo[b][1,4]oxazin-2-yl)-1-(2-oxa-6-azaspiro[3.3]heptan-6-yl)propan-1-one]	*** (a value in the range of greater than 150 to 200)	** (a value in the range of greater than 90 to 150)

Continued, molecule first:

SMILES	EC50 (RORγ-LBD; RORγ-LBD TR-FRET)	EC50 (Gal4-RORγ-LBD; with ursolic acid)	EC50 (RORγ-LBD; RORγ-LBD TR-FRET assay)	EC50 (Gal4-RORγ-LBD; in presence of ursolic acid)	TR-FRET Assay Max Response (RORγ-LBD; RORγ-LBD TR-FRET assay)	Gal4-RORγ Assay Max Response (Gal4-RORγ-LBD; in presence of ursolic acid)
CCOc1nn(CC)cc1S(=O)(=O)N1C[C@H](CCC(=O)OC)Oc2ccc(/C=C/c3ncccc3Cl)cc21 [Example 89DJ, methyl (S,E)-3-(6-(2-(3-chloropyridin-2-yl)vinyl)-4-((3-ethoxy-1-ethyl-1H-pyrazol-4-yl)sulfonyl)-3,4-dihydro-2H-benzo[b][1,4]oxazin-2-yl)propanoate]	< 500 nM	500 to 5000 nM				
CCOc1nn(CC)cc1S(=O)(=O)N1C[C@H](CCC(=O)OC)Oc2ccc(/C=C/c3cccc(Cl)n3)cc21 [Example 89AB, (S,E)-methyl 3-(6-(2-(6-chloropyridin-2-yl)vinyl)-4-((3ethoxy-1-ethyl-1H-pyrazol-4-yl)sulfonyl)-3,4-dihydro-2H-benzo[b][1,4]oxazin-2-yl)propanoate]	500 to 5000 nM	> 10000 nM				
COC(=O)CC[C@H]1CN(S(=O)(=O)c2ccc(F)c(C(F)(F)F)c2)c2cc(/C=C(\C)c3c(F)cccc3Cl)ccc2O1 [Example 86B, (S,E)-methyl 3-(6-(2-(2-chloro-6-fluorophenyl)prop-1-en-1-yl)-4-((4-fluoro-3-(trifluoromethyl)-phenyl)sulfonyl)-3,4-dihydro-2H-benzo[b][1,4]oxazin-2-yl)propanoate]	< 500 nM	< 500 nM				
C/C(=C\c1ccc2c(c1)N(S(=O)(=O)c1cccc(C(F)(F)F)c1)[C@H](C)[C@H](N)C2)c1c(F)cccc1Cl [Example 147, (2R,3R)-7-((E)-2-(2-Chloro-6-fluorophenyl)prop-1-en-1-yl)-2-methyl-1-((3-(trifluoromethyl)phenyl)sulfonyl)-1,2,3,4-tetrahydroquinolin-3-amine]			< 500 nM	500 to 5000 nM	*** (a value in the range of greater than 150 to 200)	** (a value in the range of greater than 90 to 150)
O=C(O)CC[C@H]1CN(S(=O)(=O)c2cccc(C(F)(F)F)c2)c2cc(/C=C/c3ncccc3C(F)(F)F)ccc2O1 [Example 89BI, (S,E)-3-(4-((3-(trifluoromethyl)phenyl)sulfonyl)-6-(2-(3-(trifluoromethyl)pyridin-2-yl)vinyl)-3,4-dihydro-2H-benzo[b][1,4]oxazin-2-yl)propanoic acid]	< 500 nM	< 500 nM				
C/C(=C\c1ccc2c(c1)N(S(=O)(=O)c1cn(CC(F)F)nc1OCCO)C[C@H](CCC(=O)O)O2)c1c(F)cccc1Cl [Example 86AZ, (S)-3-(6-(2-(2-chloro-6-fluorophenyl)prop-1-en-1-yl)-4-((1-(2,2-difluoroethyl)-3-(2-hydroxyethoxy)-1H-pyrazol-4-yl)sulfonyl)-3,4-dihydro-2H-benzo[b][1,4]oxazin-2-yl)propanoic acid]	< 500 nM	500 to 5000 nM				
CCOc1ncc(Cl)cc1S(=O)(=O)N1C[C@H](CCC(=O)OC)Oc2ccc(/C=C/c3c(Cl)cccc3C(F)(F)F)cc21 [Example 89CY, methyl (S,E)-3-(4-((5-chloro-2-ethoxypyridin-3-yl)sulfonyl)-6-(2-chloro-6-(trifluoromethyl)-styryl)-3,4-dihydro-2H-benzo-[b][1,4]oxazin-2-yl)propanoate]	< 500 nM	500 to 5000 nM				
CCOc1nn(CC)cc1S(=O)(=O)N1C[C@H](CCC(=O)O)Oc2ccc(/C=C/c3c(F)cccc3C(F)(F)F)cc21 [Example 88, (S,E)-3-(4-((3-Ethoxy-1-ethyl-1H-pyrazol-4-yl)sulfonyl)-6-(2-fluoro-6-(trifluoromethyl)styryl)-3,4-dihydro-2H-benzo[b][1,4]oxazin-2-yl)propanoic acid]	< 500 nM	500 to 5000 nM				
Cn1nc(/C=C/c2ccc3c(c2)N(S(=O)(=O)c2cccc(C(F)(F)F)c2)C[C@H](CCC(=O)O)O3)c2c(Cl)cccc21 [Example 89BO, (S,E)-3-(6-(2-(4-chloro-1-methyl-1H-indazol-3-yl)vinyl)-4-((3-(trifluoromethyl)phenyl)sulfonyl)-3,4-dihydro-2H-benzo[b][1,4]-oxazin-2-yl)propanoic acid]	< 500 nM	500 to 5000 nM				
CCOc1ncc(C(F)(F)F)cc1S(=O)(=O)N1C[C@H](CCC(=O)O)Oc2ccc(/C=C/c3c(Cl)cccc3C(F)(F)F)cc21 [Example 89DM, (S,E)-3-(6-(2-chloro-6-(trifluoromethyl)styryl)-4-((2-ethoxy-5-(trifluoromethyl)-pyridin-3-yl)sulfonyl)-3,4-dihydro-2H-benzo[b][1,4]-oxazin-2-yl)propanoic acid]	< 500 nM	< 500 nM				
O=C(O)CC[C@H]1CN(S(=O)(=O)c2ccc(F)c(OC(F)F)c2)c2cc(/C=C/c3c(F)cccc3Cl)ccc2O1 [Example 89CV, (S,E)-3-(6-(2-chloro-6-fluorostyryl)-4-((3-(difluoromethoxy)-4-fluorophenyl)-sulfonyl)-3,4-dihydro-2H-benzo[b][1,4]oxazin-2-yl)propanoic acid]	< 500 nM	< 500 nM				
O=C(O)CC[C@H]1CN(S(=O)(=O)c2cccc(C(F)(F)F)c2)c2cc(/C=C/c3ncccc3Cl)ccc2O1 [Example 89BK, (S,E)-3-(6-(2-(3-chloropyridin-2-yl)vinyl)-4-((3-(trifluoromethyl)phenyl)sulfonyl)-3,4-dihydro-2H-benzo[b][1,4]oxazin-2-yl)propanoic acid]	< 500 nM	< 500 nM				
